Article PMC8748916, “Microbial enzymes induce colitis by reactivating triclosan in the mouse gastrointestinal tract” (Nature Communications, 2022)
Values joined by “and” are separate entries in the source; they are usually repeats but may differ in a detail not shown here. Equal entries are not always repeated.

What was measured:
[1] = LC-MS/MS of TCS and its metabolites in human stool and urine after use of TCS-containing personal care products; assay type: in vivo; conditions: for TCS metabolites in human stool / TCS metabolites in human urine: Treatment TCS, individual subjects; for average molar concentration ratio: TCS-exposed subjects;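 for Profile in stool (%): molar share of summed TCS plus TCS-G plus TCS-sulfate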;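 for Profile in urine (%): molar share of summed TCS plus TCS-G plus TCS-sulfate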;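 for average molar concentration ratio: molar share of summed TCS plus TCS-G plus TCS-sulfate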
Description: To broaden our understanding of TCS metabolic profiles in the gut, we next analyzed TCS metabolism in human subjects. We utilized urine and stool samples from a previous study in which the recruited human subjects were first subjected to a washout period (no usage of TCS-containing products), then were randomly assigned to two groups that used personal care products like toothpaste with or without TCS for up to four months (see the scheme of the experiment in Fig. 1c)[15]. Previous data had established that humans are primarily exposed to TCS via toothpaste that provides a direct oral route to the gastrointestinal tract[16],[17].

[2] = Antibiotic suppression of gut microbiota: TCS colonic metabolism in mice (80 ppm TCS diet, 4 weeks); assay type: in vivo; conditions: 80 ppm TCS via diet 4 weeks; antibiotic cocktail vs none
Description: This antibiotic composition was used in previous studies by others[20],[21] and us[22],[23]. […] After another 4 weeks, the mice were sacrificed, and their tissues were collected for LC-MS/MS analysis.

[3] = TCS colonic metabolism in conventional vs germ-free Swiss Webster mice; assay type: in vivo; conditions: 6 h after oral gavage of 8 mg/kg TCS, individual mice
MC38 cells = assay: Inflammatory response of MC38 intestinal epithelial cells (Il-6 RT-qPCR, IL-6 ELISA); assay type: cell-based, mouse
Description: MC38 intestinal epithelial cells were cultured in Dulbecco’s Modified Eagle Medium (DMEM) supplemented with 10% fetal bovine serum (FBS) and incubated at 37 °C under an atmosphere of 5% CO2. MC38 cells were seeded at 20% confluency and left to settle overnight. Cells were then treated with either 1 μM TCS, TCS-G, or vehicle (DMSO). After 48 h, cells were harvested for RT-qPCR analysis. Cell medium was collected for ELISA analysis using the CBA Mouse Inflammation Kit (BD Sciences) according to the manufacturer’s instructions, and data were acquired using a BD LSR Fortessa flow cytometer (BD Biosciences) and analyzed using FlowJo software (Treestar).
(§1) Total RNA of colon tissues and MC38 cells were isolated using Trizol reagent (Ambion) according to the manufacturer’s instruction. RNA was reverse transcribed into cDNA using the High Capacity cDNA Reverse Transcription kit (Applied Biosystem) according to the manufacturer’s instructions. In all, 20 μL PCR reactions were prepared using the Maxima SYBR Green Master Mix (Thermo Fisher Scientific), and qPCR was carried out using a DNA Engine Opticon System (Bio-Rad Laboratories). Mouse-specific primer sequences (Thermo Fisher Scientific) used to detect inflammatory biomarkers are listed in Supplementary Table S6. Gapdh expression was used as an internal control.
a. Cultured murine intestinal epithelial MC38 cells were treated with 1 μM of TCS or TCS-G for 48 h prior to
studying inflammatory responses. b. TCS increases the expression of Il-6, which encodes the pro-inflammatory
n = 3 per group from three independent experiments, * P < 0.05, ** P < 0.01, *** P < 0.001.

[4] = Antibiotic suppression of gut microbiota: kinetics of TCS colonic metabolism after one-time oral gavage; conditions: within the 24-h period; 8 mg/kg TCS oral gavage
DSS-induced colitis = DSS-induced colitis in mice: TCS with or without GUSi (colon length, histology, FACS, qRT-PCR); assay type: in vivo
Description: (§2) After another 3 weeks, the mice were stimulated with 2% DSS (molecular weight = 36–50 KDa, MP Biomedicals, Solon, OH) in drinking water for 6 days to induce colitis. At end of the experiment, the mice were sacrificed for analysis.
as §1
Distal colon tissues were dissected, washed with cold PBS, and digested with Hank’s balanced salt solution (HBSS, Lonza) supplemented with 1 mM dithiothreitol (DTT) and 5 mM EDTA at 4 °C (colon […] cells). The released cells were stained with FITC-conjugated anti-mouse CD45 (BioLegend, Clone: 30-F11), PerCP/Cy5.5-conjugated anti-mouse F4/80 (BioLegend, Clone: BM8), and PE/Cy7-conjugated anti-mouse Ly-6G/Ly-6C (GR-1) (BioLegend, Clone: RB6-8C5) with a 1:100 diluted solution. Cells were stained with Zombie Violet^TM dye (Zombie Violet^TM Fixable Viability Kit; BioLegend) according to the manufacturer’s instructions to exclude dead cells. Gating and cell identification strategies are as follows: briefly, cell doublets and clumps were eliminated using FSC-A gating and debris was eliminated using FSC-A vs SSC-A. Dead cells were gated out using Zombie Violet™ dye. Flow cytometry data were acquired on a BD LSR Fortessa^TMcell analyzer (Becton Dickinson, Franklin Lakes, NJ) and analyzed using FlowJo software (FlowJo, LLC). Gating strategies used for the identification of major immune cell populations are shown in Supplementary Fig. S17.
The dissected colon tissues were fixed in 10% neutral buffered formalin (Thermo Fisher Scientific) for 48 h. After dehydration, the tissues were embedded in paraffin and sliced ([…]) by Rotary Microtome (Thermo Fisher Scientific). The slices were dewaxed in serial xylene and rehydrated through ethanol solutions, stained with hematoxylin and eosin (Sigma-Aldrich), and images were obtained under 200× magnification (BZ-X700 microscope, Keyence, Itasca, IL). The histologic scores were evaluated by a blinded observer according to the following measures: crypt architecture, degree of inflammatory cell infiltration, muscle thickening, goblet cell depletion, and crypt abscess. The histologic damage score is the sum of each individual score.

[5] = Target engagement: GUSi in colon tissue and TCS to TCS-G ratio in colon digesta by LC-MS/MS; assay type: in vivo, mice; conditions: for GUSi in colon tissue: GUSi-treated mice, individual mice
Description: as §2
Fig. S15. Orally dosed GUSi reaches the mouse colon and suppresses conversion of TCS -G to TCS. a.
mice were stimulated with DSS to induce colitis. The final GUSi was dosed on day 25 and mice were sacrificed
for analysis on day 27. b. GUSi is detected in the mouse colon 2 days after the final dose of the inhibitor. c.
GUSi treatment reduces the ratio of TCS to TCS-G in colon digesta.
per group. NA: no TCS or TCS-G detected.

[6] = treatment time 0 months (after washout)
[7] = DSS colitis mice, FACS, individual animals, Fig.5d
[8] = DSS colitis mice, gene expression, individual animals, Fig.5e

## O=C(O)C1OC(Oc2cc(Cl)ccc2Oc2ccc(Cl)cc2Cl)C(O)C(O)C1O (stereo not drawn) [TCS-G, triclosan-glucuronide]
[1]; TCS-exposed human subjects, n=7 urine samples
  Profile in urine (%): 98.39%
[1]; TCS-exposed human subjects, n=23 stool samples
  Profile in stool (%): 0.80%
[1]; [6]
  TCS metabolites in human stool: 10.69 pmol/ g stool and 5.96 pmol/ g stool and < LOD and 10.80 pmol/ g stool
  TCS metabolites in human urine: 18.4 nM urine and 3.47 nM urine and < LOD and 12.5 nM urine
[1]; treatment time 1 month
  TCS metabolites in human stool: 10.24 pmol/ g stool and 13.69 pmol/ g stool and < LOD (3×) and 2.81 pmol/ g stool
  TCS metabolites in human urine: 626 nM urine
[1]; treatment time 2 months
  TCS metabolites in human stool: 3.18 pmol/ g stool and 2.97 pmol/ g stool and < LOD (2×) and 4.42 pmol/ g stool
  TCS metabolites in human urine: 953 nM urine
[1]; treatment time 3 months
  TCS metabolites in human stool: 7.01 pmol/ g stool and 5.96 pmol/ g stool and < LOD (3×) and 6.49 pmol/ g stool
  TCS metabolites in human urine: 771 nM urine
[1]; treatment time 4 months
  TCS metabolites in human stool: 7.57 pmol/ g stool and < LOD (3×) and 3.12 pmol/ g stool and 4.69 pmol/ g stool
  TCS metabolites in human urine: 1037 nM urine and 70.9 nM urine and 1373 nM urine and 775 nM urine
[1]; human stool
  average molar concentration ratio: 0.8%
[1]; human urine
  average molar concentration ratio: 98.4%
[2]
  change of concentration in the fecal content by antibiotic treatment: sixfold
[3]; CONV Swiss Webster mice
  tcs, tcs-G in colon digesta: 0.05 pmol/mg and 0.09 pmol/mg and 0.07 pmol/mg and 0.08 pmol/mg and 0.03 pmol/mg and 0.02 pmol/mg
[3]; GF Swiss Webster mice
  tcs, tcs-G in colon digesta: 3.55 pmol/mg and 2.97 pmol/mg and 3.05 pmol/mg and 2.08 pmol/mg and 2.61 pmol/mg
MC38 cells; 1 µM, 48 h
  Il-6 gene expression: does not
MC38 cells; MC38 cells, gene expression, replicates
  Il-6 (Fig. S16b): 1.072 and 0.7026 and 0.674 and 0.599 and 2.104 and 1.745 and 1.341 and 2.8489 and 1.88
MC38 cells; MC38 cells, protein, replicates
  IL-6 (Fig. S16c): 30.76 pg/mL and 26.1 pg/mL and 35.84 pg/mL and 30.49 pg/mL and 20.04 pg/mL and 13.78 pg/mL and 35.28 pg/mL and 36.12 pg/mL and 25.88 pg/mL
[4]
  increase of AUC in colon digesta by antibiotic treatment: ~ 200 fold

## C1CCc2c(c(N3CCOCC3)nc3sc4c(N5CCNCC5)nnnc4c23)C1 [GUSi, UNC10201652]
DSS-induced colitis; 1 mg/kg GUSi via oral gavage, 80 ppm TCS via diet, DSS-induced colitis, all measures
  colitis-enhancing effects of TCS with co-administration of GUSi: eliminated
DSS-induced colitis; [7]
  cd45+(%): 3.37% and 1.44% and 2.8% and 3.35% and 3.49% and 6.62% and 4.63% and 3.22%
  f4/80+ (%): 5.88% and 5.56% and 2.33% and 7.14% and 0% and 1.72%
  gr-1+ (%): 0% and 2.94% and 5.56% and 1.43% and 2.13%
DSS-induced colitis; [8]
  Il-6: 0.5774 and 0.763 and 0.8366 and 0.5822 and 0.577 and 0.6095
  Il-17: 0.5948 and 0.2298 and 0.792 and 0.6818 and 0.4596 and 0.7005
  Il-23: 0.7347 and 0.9268 and 1.245 and 0.9397 and 0.6326 and 1.199
  Mcp1: 0.841 and 0.7995 and 1.048 and 0.7621 and 1.517 and 1.4734 and 0.8163
  Tnf-α: 1.652 and 0.2802 and 0.2939 and 0.2088 and 0.6209 and 0.7192
DSS-induced colitis; DSS colitis mice, histology score, individual animals, Fig.5c
  HE: 4 and 3 and 6
DSS-induced colitis; DSS colitis mice, individual animals, Fig.5b
  colon length (cm): 6.9 cm and 7.5 cm and 7.1 cm and 7.2 cm and 6.7 cm
[5]; 2 days after the final oral administration of GUSi (1 mg/kg)
  presence in colon tissues: detected
[5]; GUSi 1 mg/kg oral gavage, TCS via diet
  ratio of TCS to TCS-G in colon digesta: significantly reduced
[5]; TCS
  GUSi in colon tissue: 4.6 pmol/g and 5.3 pmol/g and 18.7 pmol/g and 4.5 pmol/g and 2.1 pmol/g and 0.7 pmol/g and 6.2 pmol/g and 5.7 pmol/g and 12 pmol/g and 5.4 pmol/g
[5]; Veh (no TCS)
  GUSi in colon tissue: 9 pmol/g and 9.3 pmol/g and 5.9 pmol/g and 9.8 pmol/g and 11.9 pmol/g and 9.9 pmol/g and 14 pmol/g and 8.6 pmol/g
